Values quoted from earlier work as cited in patent US20180355410A1, “DIAGNOSIS AND TREATMENT OF INFECTIOUS DISEASE” (Cambridge Enterprise Limited, priority 2015, published 2018).

Tested on: Neisseria gonorrhoeae
Details: EUCAST clinical breakpoint valid from 1st January 2015

## CC[C@H]1OC(=O)[C@H](C)[C@@H](O[C@H]2C[C@@](C)(OC)[C@@H](O)[C@H](C)O2)[C@H](C)[C@@H](O[C@@H]2O[C@H](C)C[C@H](N(C)C)[C@H]2O)[C@](C)(O)C[C@@H](C)CN(C)[C@H](C)[C@@H](O)[C@]1(C)O [Azithromycin]
  MIC R-breakpoint (resistant): > 0.5 µg/mL
  MIC S-breakpoint (susceptible): ≤ 0.25 µg/mL
